Test results published in PubChem BioAssay (NCI).
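At the GI50, growth is halved. At the TGI there is no net growth.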

Columns and labels:
Experiment in all cases: inhibition of tumour cell growth, NCI panel, 384-well format
[1] = system: MDA-MB-435 melanoma
[2] = system: HCT-116 colon
[3] = system: SW-620 colon
[4] = system: RXF 393 renal
[5] = system: SNB-75 CNS
[6] = system: NCI-H460 NSCLC
[7] = system: PC-3 prostate
[8] = system: SK-MEL-2 melanoma
[9] = system: U251 glioblastoma
[10] = system: MDA-MB-231 breast
[11] = system: OVCAR-5 ovarian
[12] = system: BT-549 breast
[13] = system: HOP-92 NSCLC
[14] = system: HT29 colon
[15] = system: NCI-H322M lung
[16] = system: UACC-257 melanoma
[17] = system: SK-MEL-5 melanoma
[18] = system: MOLT-4 leukemia
[19] = system: HCT-15 colon
[20] = system: DU-145 prostate
[21] = system: SF-268 CNS
[22] = system: 786-0 renal
[23] = system: UACC-62 melanoma
[24] = system: K-562 leukemia
[25] = system: TK-10 renal
[26] = system: UO-31 renal
[27] = system: SR leukemia
[28] = system: A549 NSCLC
[29] = system: HOP-62 NSCLC
[30] = system: CAKI-1 renal
[31] = system: COLO 205 colon
[32] = system: IGROV1 ovarian
[33] = system: T-47D breast
[34] = system: EKVX NSCLC
[35] = system: OVCAR-8 ovarian
[36] = system: HL-60(TB) leukemia
[37] = system: SF-295 CNS
[38] = system: OVCAR-3 ovarian
[39] = system: HS 578T breast
[40] = system: SK-OV-3 ovarian
[41] = system: NCI-H226 lung
[42] = system: SK-MEL-28 melanoma
[43] = system: MCF7 breast
[44] = system: OVCAR-4 ovarian
[45] = system: M14 melanoma
[46] = system: NCI-H522 lung
[47] = system: NCI-H23 lung
[48] = system: SF-539 CNS
[49] = system: MALME-3M melanoma
[50] = system: ACHN renal
[51] = system: A498 renal
[52] = system: KM12 colon
[53] = system: MDA-MB-468 breast
[54] = system: SN12C renal
[55] = system: SNB-19 CNS

With `C[C@@H](N)COc1ccc(-c2cnc3ccc(N[C@H](C)c4cccc(F)c4)nn23)cc1` the GI50 [1] was 1440 nM, the TGI [1] was 2760 nM and the GI50 [2] was 1490 nM. The TGI [2] was 2860 nM, the GI50 [3] was 1430 nM and the TGI [3] was 2780 nM. The GI50 [4] was 1170 nM, the TGI [4] was 2390 nM and the GI50 [5] was 1590 nM. It also gave a TGI [5] of 2960 nM, a TGI [6] of 1440 nM and a GI50 [7] of 1460 nM. It also gave a TGI [7] of 2910 nM, a GI50 [8] of 1270 nM and a TGI [8] of 2540 nM. The GI50 [9] was 1600 nM, the TGI [9] was 2960 nM and the GI50 [10] was 1420 nM. The TGI [10] was 2760 nM, the GI50 [11] was 1250 nM and the TGI [11] was 2610 nM. The GI50 [12] was 1370 nM, the TGI [12] was 2660 nM and the GI50 [13] was 1510 nM. The TGI [13] was 2850 nM, the GI50 [14] was 1300 nM and the TGI [14] was 2590 nM. It also gave a GI50 [15] of 2180 nM, a TGI [15] of 4100 nM and a GI50 [16] of 1380 nM. For the same compound, the TGI [16] was 2690 nM, the GI50 [17] was 1030 nM and the TGI [17] was 2220 nM. For the same compound, the GI50 [18] was 1130 nM, the TGI [18] was 2350 nM and the GI50 [19] was 1630 nM. The TGI [19] was 3040 nM, the GI50 [20] was 1530 nM and the TGI [20] was 2960 nM. It also gave a GI50 [21] of 1590 nM, a TGI [21] of 2960 nM and a GI50 [22] of 1550 nM. It also gave a TGI [22] of 2900 nM, a GI50 [23] of 1720 nM and a TGI [23] of 3100 nM. The GI50 [24] was 1110 nM, the TGI [24] was 2360 nM and the GI50 [25] was 1520 nM. The TGI [25] was 2900 nM, the GI50 [26] was 1790 nM and the TGI [26] was 3190 nM. For the same compound, the GI50 [27] was 34.5 nM, the TGI [27] was 125 nM and the GI50 [28] was 1560 nM. The TGI [28] was 2940 nM, the GI50 [29] was 1730 nM and the TGI [29] was 3160 nM. For the same compound, the GI50 [30] was 1680 nM, the TGI [30] was 3050 nM and the GI50 [31] was 1620 nM. The TGI [31] was 3010 nM, the GI50 [32] was 1620 nM and the TGI [32] was 3050 nM. It also gave a GI50 [33] of 1350 nM, a TGI [33] of 2660 nM and a GI50 [34] of 1020 nM. For the same compound, the TGI [34] was 2220 nM, the GI50 [35] was 1600 nM and the TGI [35] was 2970 nM. The GI50 [36] was 1070 nM, the TGI [36] was 2270 nM and the GI50 [37] was 1640 nM. For the same compound, the TGI [37] was 3020 nM, the GI50 [38] was 1620 nM and the TGI [38] was 3160 nM. For the same compound, the GI50 [39] was 1470 nM, the TGI [39] was 2800 nM and the GI50 [40] was 1470 nM. It also gave a TGI [40] of 2850 nM, a GI50 [41] of 1430 nM and a TGI [41] of 2830 nM. For the same compound, the GI50 [42] was 1630 nM, the TGI [42] was 3010 nM and the GI50 [43] was 1140 nM. The TGI [43] was 2370 nM, the GI50 [44] was 1490 nM and the TGI [44] was 3240 nM. It also gave a GI50 [45] of 1730 nM, a TGI [45] of 3110 nM and a GI50 [46] of 1160 nM. It also gave a TGI [46] of 2390 nM, a GI50 [47] of 1540 nM and a TGI [47] of 3150 nM. For the same compound, the GI50 [48] was 1420 nM, the TGI [48] was 2740 nM and the GI50 [49] was 1680 nM. The TGI [49] was 3060 nM, the GI50 [50] was 1570 nM and the TGI [50] was 2940 nM. For the same compound, the GI50 [51] was 1590 nM, the TGI [51] was 2960 nM and the GI50 [52] was 1600 nM. For the same compound, the TGI [52] was 3000 nM, the GI50 [53] was 1000 nM and the TGI [53] was 2170 nM. It also gave a GI50 [54] of 1560 nM, a TGI [54] of 2910 nM and a GI50 [55] of 2060 nM. The TGI [55] was 4040 nM.
